Columns and labels:
[1] = system: Male Sprague-Dawley rats; test: antinociceptive tests: tail flick (tail immersion) test and paw pressure test; assay type: in vivo; settings: for degree of analgesia: intraperitoneally administered, codeine 5 mg/Kg compared with compound of example 26
Excerpt: The compounds of the invention may be compared with the unmodified parent opiates in standard antinociceptive tests, i.e. in terms of potency and duration of action. For example, phamacological tests may be effected to examine the effects of the compounds of the invention on suppressing pain associated to nocius stimuli induced in laboratory animals. Thus, these compounds can be tested by measuring the time treated animals are insensitive to a given painful stimuli.
In spite of the different classes among the compounds of the invention which can be appreciated in accordance to their chemical structure, all are pain-related substances and therefore can be examined on the tail immersion and paw pressure tests as follows.
Male Sprague-Dawley rats weighing 200 g are used. They are housed singly in a room with controlled temperature 21 °C on a 12h light-dark cycle and given free access to food and water.
The tail flick test, is conducted as described by D'Amour F.E. and Smith D.L. in A method for determining loss of pain sensations, J.Pharmacol. Exp. Ther. 72,74, 1941.
Mechanical nociceptive thresholds are determined by the paw pressure test on the left hind paw as described in the literature (Randall L.O. and Selito J.J. A method for measurement of analgesic activity on inflamed tissue, Arch. Int. Pharmacodyn. Ther. 1957, 11, 409-419.). Pain thresholds are measured with an analgesymeter. The apparatus is set up to apply a force of 0-1000 g increasing from zero at a rate of 64 g/s. The nociceptive threshold is taken as the point at which the rat vocalize or struggle vigorously.

[2] = cited from earlier work; for analgesic activity: compared with the parent drug morphine
[3] = blood of patients taking morphine; cited from earlier work

Row | SMILES | degree of analgesia [1] | analgesic activity [2] | concentration in blood relative to morphine [3] | also measured
1 | CCCCCCCCNC(=O)[C@H]1O[C@@H](Oc2ccc3c4c2O[C@H]2[C@@H](O)C=C[C@H]5[C@@H](C3)N(C)CC[C@@]452)[C@H](O)[C@@H](O)[C@@H]1O [Example 1, 3-Morphinyl n-octyl-(β-D-glucopyranosyl)-uronamide acetate] | – | – | – | analgesia ([1]; intraperitoneal administration, dosis of 0.1 mg/Kg, maximal antinociceptive response): 100%
2 | COc1ccc2c3c1O[C@H]1[C@@H](O[C@@H]4O[C@H](CO)[C@@H](O)[C@H](O)[C@H]4O)C=C[C@H]4[C@@H](C2)N(C)CC[C@@]341 [Example 26, 6-Codeinyl-β-D-glucopyranoside acetate] | the same degree of analgesia | – | – | –
3 | CN1CC[C@]23c4c5ccc(O[C@@H]6O[C@H](C(=O)O)[C@@H](O)[C@H](O)[C@H]6O)c4O[C@H]2[C@@H](O)C=C[C@H]3[C@H]1C5 [Example M3G, Morphine 3-glucuronide] | – | not analgesic | approximately 20 fold | analgesia ([1]; intraperitoneal administration, dosis of 1 mg/Kg, same effect as morphine 5 mg/Kg): 65-75%
4 | CN1CC[C@]23c4c5ccc(O)c4O[C@H]2[C@@H](O[C@@H]2O[C@H](C(=O)O)[C@@H](O)[C@H](O)[C@H]2O)C=C[C@H]3[C@H]1C5 [Example M6G, Morphine 6-glucuronide] | – | several times more active than the parent drug | two fold higher than morphine | analgesic activity relative to morphine ([2]; injected intrathecally): much more active than morphine
5 | COc1ccc2c3c1O[C@H]1[C@@H](O)C=C[C@H]4[C@@H](C2)N(C)CC[C@@]341 [codeine] | the same degree of analgesia as compound of example 26 | – | – | –
6 | CN1CC[C@]23c4c5ccc(O)c4O[C@H]2[C@@H](O)C=C[C@H]3[C@H]1C5 [morphine] | – | – | – | analgesia ([1]; rat, in vivo, ip, 5 mg/kg): 65-75%

Source: patent EP0816375A1, “GLYCOCONJUGATES OF OPIATED SUBSTANCES” (ROLABO SL, priority 1995, dated 1997)
